{"source": "patent US11708348B2", "about": "“Protease inhibitors for treatment of coronavirus infections” (The Scripps Research Institute, priority 2021, dated 2023)", "system": "SARS-CoV-2 strain USA-WA1/2020", "assay": "microbe, parasite or virus in culture", "assay_type": "cell-based", "conditions": "Severe acute respiratory syndrome coronavirus 2, HeLa-ACE2, 24 h, read-out: EC50, uM (Hela)", "key": {"[1]": {"conditions": "HeLa-ACE2 cells, SARS-CoV-2 infection, 24 h"}}, "note": "Where two headings read alike, the source gives them in different places.", "data": [{"compound": "CC(C)C[C@H](C(=O)N1CC2(CC2)C[C@H]1C(=O)N[C@@H](C[C@@H]1CCNC1=O)C(=O)COC(F)(F)F)N(C)C(=O)OC(C)(C)C", "note": "[Compound 645, tert-butyl methyl((R)-4-methyl-1-oxo-1-((S)-6-(((S)-3-oxo-1-((S)-2-oxopyrrolidin-3-yl)-4-(trifluoromethoxy)butan-2-yl)carbamoyl)-5-azaspiro[2.4]heptan-5-yl)pentan-2-yl)carbamate]", "values": [{"measurement": "EC50", "setting": "[1]", "result": "0.05 to 0.2", "unit": "µM"}]}, {"compound": "COC1(C(=O)N2CC3(CC3)C[C@H]2C(=O)N[C@@H](C[C@@H]2CCNC2=O)C(=O)COC(F)(F)F)CCC(F)(F)CC1", "note": "[Compound 646, (S)-5-(4,4-difluoro-1-methoxycyclohexane-1-carbonyl)-N-((S)-3-oxo-1-((S)-2-oxopyrrolidin-3-yl)-4-(trifluoromethoxy)butan-2-yl)-5-azaspiro[2.4]heptane-6-carboxamide]", "values": [{"measurement": "EC50", "setting": "[1]", "result": "< 0.05", "unit": "µM"}]}, {"compound": "CC(C)OCC(=O)N1CC2(CC2)C[C@H]1C(=O)N[C@@H](C[C@@H]1CCNC1=O)C(=O)COC(F)(F)F", "note": "[Compound 647, (888S)-5-(2-isopropoxyacetyl)-N-((S)-3-oxo-1-((S)-2-oxopyrrolidin-3-yl)-4-(trifluoromethoxy)butan-2-yl)-5-azaspiro[2.4]heptane-6-carboxamide]", "values": [{"measurement": "EC50", "setting": "[1]", "result": "0.05 to 0.2", "unit": "µM"}]}, {"compound": "O=C1NCC[C@H]1C[C@H](NC(=O)[C@@H]1CC2(CC2)CN1C(=O)Cc1ccccc1)C(=O)COC(F)(F)F", "note": "[Compound 648, (S)-N-((S)-3-oxo-1-((S)-2-oxopyrrolidin-3-yl)-4-(trifluoromethoxy)butan-2-yl)-5-(2-phenylacetyl)-5-azaspiro[2.4]heptane-6-carboxamide]", "values": [{"measurement": "EC50", "setting": "[1]", "result": "< 0.05", "unit": "µM"}]}, {"compound": "O=C1NCC[C@H]1C[C@H](NC(=O)[C@@H]1CC2(CC2)CN1C(=O)C1(O)CCC(C(F)(F)F)CC1)C(=O)COC(F)(F)F", "note": "(stereo partly drawn) [Compound 649, (S)-5-(l-hydroxy-4-(trifluoromethyl)cyclohexane-1-carbonyl)-N-((S)-3-oxo-1-((S)-2-oxopyrrolidin-3-yl)-4-(trifluoromethoxy)butan-2-yl)-5-azaspiro[2.4]heptane-6-carboxamide]", "values": [{"measurement": "EC50", "setting": "[1]", "result": "0.05 to 0.2", "unit": "µM"}]}, {"compound": "CC(C)C[C@H](NC(=O)C(=O)Nc1ccccc1F)C(=O)N[C@@H](C[C@@H]1CCNC1=O)C(=O)COP(C)(=O)c1ccccc1", "note": "(stereo partly drawn) [Compound 651, (S)-3-((S)-2-(2-((2-fluorophenyl)amino)-2-oxoacetamido)-4-methylpentanamido)-2-oxo-4-((S)-2-oxopyrrolidin-3-yl)butyl methyl(phenyl)phosphinate]", "values": [{"measurement": "EC50", "result": "0.05 to 0.2", "unit": "µM"}]}, {"compound": "CC(C)C[C@H](NC(=O)C(=O)Nc1ccccc1)C(=O)N[C@@H](C[C@@H]1CCNC1=O)C(=O)COP(C)(=O)c1ccccc1", "note": "(stereo partly drawn) [Compound 653, (S)-3-((S)-4-methyl-2-(2-oxo-2-(phenylamino)acetamido)pentanamido)-2-oxo-4-((S)-2-oxopyrrolidin-3-yl)butyl methyl(phenyl)phosphinate]", "values": [{"measurement": "EC50", "result": "0.2 to 0.5", "unit": "µM"}]}, {"compound": "CSCC[C@H](NC(=O)[C@H](CC(C)C)NC(=O)C(=O)Nc1ccccc1F)C(=O)COc1c(F)c(F)cc(F)c1F", "note": "[Compound 654, N1-(2-fluorophenyl)-N2-((S)-4-methyl-1-(((S)-5-(methylthio)-2-oxo-1-(2,3,5,6-tetrafluorophenoxy)pentan-3-yl)amino)-1-oxopentan-2-yl)oxalamide]", "values": [{"measurement": "EC50", "setting": "[1]", "result": "0.5 to 1", "unit": "µM"}]}, {"compound": "CC(C)C[C@H](NC(=O)C(=O)Nc1ccccc1F)C(=O)N[C@@H](CCS(C)(=O)=O)C(=O)COc1c(F)c(F)cc(F)c1F", "note": "[Compound 655, N1-(2-fluorophenyl)-N2-((S)-4-methyl-1-(((S)-5-(methylsulfonyl)-2-oxo-1-(2,3,5,6-tetrafluorophenoxy)pentan-3-yl)amino)-1-oxopentan-2-yl)oxalamide]", "values": [{"measurement": "EC50", "setting": "[1]", "result": "0.5 to 1", "unit": "µM"}]}, {"compound": "O=C(NC1(C(F)(F)F)CC1)C(=O)N1C[C@@H]2CCC[C@@H]2[C@H]1C(=O)N[C@@H](C[C@@H]1CCNC1=O)C(=O)COC(F)(F)F", "note": "[Compound 656, (1S,3aR,6aS)-N-((S)-3-oxo-1-((S)-2-oxopyrrolidin-3-yl)-4-(trifluoromethoxy)butan-2-yl)-2-(2-oxo-2-((1-(trifluoromethyl)cyclopropyl)amino)-acetyl)octahydrocyclopenta[c]pyrrole-1-carboxamide]", "values": [{"measurement": "EC50", "setting": "[1]", "result": "0.05 to 0.2", "unit": "µM"}]}]}
